Our source for the AC50 values is patent US9221792B2, “N-(4-(azetidine-1-carbonyl) phenyl)-(hetero-) arylsulfonamide derivatives as pyruvate kinase M2 (PMK2) modulators” (AGIOS PHARMACEUTICALS, INC, priority 2010, dated 2015).

By AC50 is commonly meant the midpoint of the concentration-response curve, whichever way the signal moves.

PKM2, sequence (P14618 whole entry): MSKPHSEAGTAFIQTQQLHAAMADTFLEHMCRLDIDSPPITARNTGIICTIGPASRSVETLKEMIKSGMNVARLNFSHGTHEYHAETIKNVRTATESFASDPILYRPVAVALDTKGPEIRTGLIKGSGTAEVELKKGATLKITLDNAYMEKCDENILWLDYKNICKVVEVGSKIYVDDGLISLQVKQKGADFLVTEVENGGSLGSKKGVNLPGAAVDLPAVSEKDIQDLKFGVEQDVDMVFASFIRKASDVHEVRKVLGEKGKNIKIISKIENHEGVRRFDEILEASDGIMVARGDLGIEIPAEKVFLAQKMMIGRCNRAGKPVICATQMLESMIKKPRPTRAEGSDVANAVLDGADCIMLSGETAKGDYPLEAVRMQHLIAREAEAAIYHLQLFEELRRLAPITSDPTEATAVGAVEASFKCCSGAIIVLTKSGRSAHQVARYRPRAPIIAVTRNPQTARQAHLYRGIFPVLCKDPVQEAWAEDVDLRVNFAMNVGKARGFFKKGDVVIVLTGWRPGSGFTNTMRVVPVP

This assay concerns the target PKM2 (Homo sapiens, UniProt P14618). Put plainly: PKM2 Assay (activation, LDH-coupled NADH absorbance at 340 nm). The assay is classed as biochemical. As to conditions: activation of PKM2; PKM2 50 ng/well, ADP 0.7 mM, PEP 0.15 mM, room temperature (25° C.); read-out: AC50. On the procedure:
• PKM2 stock enzyme solution was diluted in Reaction Buffer • 2 μL of compound was added into each well first, and then 180 μL of the Reaction Mix was added. • Reaction mixture with compound (without ADP) were incubated for 30 minutes at 4° C. • Plates were re-equilibrated to room temperature prior to adding 20 μL ADP to initiate the reaction. • Reaction progress was measured as changes in absorbance at 340 nm wavelength at room temperature (25° C.) Reaction Mix: PKM2 (50 ng/well), ADP (0.7 mM), PEP (0.15 mM), NADH (180 μM), LDH (2 units) in Reaction Buffer Reaction Buffer: 100 mM KCl, 50 mM Tris pH 7.5, 5 mM MgCl2, 1 mM DTT, 0.03% BSA.
Certain compounds of Formula I were tested in the above-described assay. A compound described herein may be tested for its ability to activate PKM2. The activation activity of these compounds is represented as an AC50 in Table 2 and throughout the application. […] “B” refers to an activator of PKM2 with an EC50 between 100 nM and 1 μM. “C” refers to an activator of PKM2 with an EC50 between 1 μM and 10 μM. “D” refers to an activator of PKM2 with an EC50 greater than 10 μM. “NA” refers to data that is not available.
For `CN(Cc1ccccc1)C1CN(C(=O)c2ccc(NS(=O)(=O)c3cccc4cccnc34)cc2)C1` [Compound 146], the AC50 is 0.1 to 1 µM.
`O=C(c1ccc(NS(=O)(=O)c2cccc3cccnc23)cc1)N1CC(NCc2ccccc2)C1` [Compound 147, N-(4-(3-(benzylamino)azetidine-1-carbonyl)phenyl)quinoline-8-sulfonamide]: the AC50 was in the range of 0.1 to 1 µM.
Regarding `COc1ncccc1NC1CN(C(=O)c2ccc(NS(=O)(=O)c3cccc4cccnc34)c(C)c2)C1` [Compound 148], the concentration at half-maximal activity (AC50) is 0.1 to 1 µM.
The same measure for `COc1cccnc1NC1CN(C(=O)c2ccc(NS(=O)(=O)c3cccc4cccnc34)c(C)c2)C1` [Compound 149]: less than 0.1 µM; for `COc1ccccc1OC1CN(C(=O)c2ccc(NS(=O)(=O)c3cccc4cccnc34)cc2OC)C1` [Compound 150]: less than 0.1 µM; for `Cc1cc(C(=O)N2CC(Nc3ccccn3)C2)ccc1NS(=O)(=O)c1cccc2cccnc12` [Compound 151]: less than 0.1 µM.
With `COc1ccncc1NC1CN(C(=O)c2ccc(NS(=O)(=O)c3cccc4cccnc34)c(C)c2)C1` [Compound 153], the concentration at half-maximal activity (AC50) lay within 0.1 to 1 µM.
Consider `COc1ccccc1OC1CN(C(=O)c2ccc(NS(=O)(=O)c3cccc4cccnc34)c(F)c2)C1` [Compound 154], for which the AC50 lay in the range of 0.1 to 1 µM.
For `Cc1cc(C(=O)N2CC(OC(=O)Nc3ccccn3)C2)ccc1NS(=O)(=O)c1cccc2cccnc12` [Compound 155, 1-(3-Methyl-4-(quinoline-8-sulfonamido)benzoyl)azetidin-3-yl pyridin-2-ylcarbamate], the AC50 was 0.1 to 1 µM.
With `COc1cc(C(=O)N2CC(OC(=O)Nc3ccccn3)C2)ccc1NS(=O)(=O)c1cccc2cccnc12` [Compound 156, 1-(3-Methoxy-4-(quinoline-8-sulfonamido)benzoyl)azetidin-3-yl pyridin-2-ylcarbamate], the AC50 was 0.1 to 1 µM.
On to `COc1cc(NS(=O)(=O)c2cccc3cccnc23)ccc1C(=O)N1CC(OC(=O)Nc2ccccn2)C1` [Compound 157, 1-(2-Methoxy-4-(quinoline-8-sulfonamido)benzoyl)azetidin-3-yl pyridin-2-ylcarbamate], for which the AC50 was in the range of 0.1 to 1 µM.
Take `COc1cc(C(=O)N2CC(Oc3ccccc3OC)C2)ccc1NS(=O)(=O)c1cccc2cccnc12` [Compound 158]: the AC50 is less than 0.1 µM.
With `COc1ccccc1OC1CN(C(=O)c2ccc(NS(=O)(=O)c3cccc4cccnc34)c(C)c2)C1` [Compound 159], the AC50 was less than 0.1 µM.
On to `O=C(Nc1ccccn1)NC1CN(C(=O)c2ccc(NS(=O)(=O)c3cccc4cccnc34)cc2)C1` [Compound 160, N-(4-(3-(3-(Pyridin-2-yl)ureido)azetidine-1-carbonyl)phenyl)quinoline-8-sulfonamide], for which the AC50 lay in the range of 0.1 to 1 µM.
The same measure for `O=C(Nc1ccccn1)OC1CN(C(=O)c2ccc(NS(=O)(=O)c3cccc4cccnc34)cc2)C1` [Compound 161, 1-(4-(Quinoline-8-sulfonamido)benzoyl)azetidin-3-ylpyridin-2-ylcarbamate]: 1 to 10 µM; for `O=C(Nc1ccccn1)OC1CN(C(=O)c2ccc(NS(=O)(=O)c3cccc4cccnc34)c(F)c2)C1` [Compound 162, 1-(3-Fluoro-4-(quinoline-8-sulfonamido)benzoyl)azetidin-3-yl pyridin-2-ylcarbamate]: greater than 10 µM.
The same measure for `CC(C)NC(=O)NC1CN(C(=O)c2ccc(NS(=O)(=O)c3cccc4cccnc34)cc2)C1` [Compound 163]: 1 to 10 µM; for `Cc1cc(C(=O)N2CC(NC(=O)NC(C)C)C2)ccc1NS(=O)(=O)c1cccc2cccnc12` [Compound 164]: 0.1 to 1 µM; for `O=C(c1ccc(NS(=O)(=O)c2cccc3cccnc23)cc1)N1CC(=Cc2ccccc2)C1` [Compound 165]: 0.1 to 1 µM.
